Assay [1] has as its system Strep. thermophilus cells. Nature of the assay: Visual antibiotic assay in milk with lyophilized bacteria subjected to osmotic changes (MTT colour). The assay is classed as cell-based, Streptococcus thermophilus (ATCC 14485). The procedure:
Keep cold until use. • (b) To each 1 mL milk specimen or controls add 0.053 gr glucose and 0.1 mL of rehydrated bacterial suspension obtained in (a) above. Mix and incubate at 42°C for 25 min. • (c) Add 2 mL of a chromogenic mixture, containing 0.5 % glucose and 0.175 mg/mL MTT in water to each of the specimens and controls. Mix and incubate for 5 min at 42°C. • (d) Visually examine the color of each specimen and compare it to the color of the control. A color density lower than the color of the control indicates antibiotic activity in the specimen. Table 5 below summarizes the sensitivity of the visual assay for various antibiotic drugs, added to antibiotic free milk specimens.

For assay [2], the system named is B. stearothermophilus (ATCC 10149) cells. Nature of the assay: Inhibition of MTT colour formation in B. stearothermophilus after pre-incubation in isotonic or hypertonic medium (Tryptic Soy broth). The assay is classed as cell-based, Bacillus stearothermophilus. The settings on record: specimen containing 40 mIU/mL Penicillin G. The procedure: Logarithmic B. stearothermophilus (ATCC 10149) cells were suspended in Difco Tryptic Soy broth with or without 0.8M sucrose, and incubated at 55°C with shaking for 1 hr. […] Control reaction mixture was constructed with bacterial suspension and Tryptic Soy broth. Following a 30 min incubation at 55°C, all reaction mixtures were diluted 1:5 into […] MTT, 0.5 glucose in water and incubation continued for 5 minutes. The color suspension was clarified by vigorously mixing 0.5 mL aliquots with 0.7 mL isoamyl alcohol containing 0.04N hydrochloric acid. The optical density of the clarified mixtures was measured at 570 nm and the inhibition of color formation, relative to the control was calculated and is presented in Table 7.

The subject of assay [3] is Strep. thermophilus cells. Nature of the assay: Detection of Penicillin G in milk by inhibition of MTT reduction in Strep. thermophilus cells, butanol extraction, OD 570 nm. The assay is classed as cell-based, Streptococcus thermophilus (ATCC 14485). The procedure:
• (a) Streak Streptococcus thermophilus (ATCC 14485) suspension on solid medium, comprising 10 % Difco skim milk, 0,5 % Difco yeast extract, 2 % Agar in distilled water. Distinct colonies should emerge after overnight incubation at 42°C. • (b) Suspended a colony in 10 mL of a liquid medium, comprising 10 % Difco skim milk and 0.5 % Difco yeast extract in water (medium A). Incubate the suspension overnight at 42°C in 12 mL plastic, disposable centrifuge test tubes. • (c) Dilute the resultant suspension 1:10 into medium A and incubate at 42°C until the pH of the medium drops to 5.0 (about 2hrs). The resulting viable cell concentration is 1-2x10⁸/1mL. • (d) Cell concentration can be increased by adding 1N NaOH solution until the pH is raised to 6.2, and continuing incubation at 42°C until the pH drops again to 5.0. This cycle can be repeated 5-7 times until the culture becomes stationary at 1-2x10⁹ cells/mL. • (e) Adjust cell concentration to 1 x 10⁸ cells mL and store at 6-10°C for up to 24 hrs for use in antibiotic assay. Alternatively, distribute 2 mL aliquots of the suspension into 12 mL Penicillin vials (24 x 45 mm), freeze in liquid nitrogen and dry on refrigerated shelves of a stoppering, programmable lyophilizer, employing a 48-72 hour program.
• (a) Add 2 mL of distilled water to each vial of dried Strep. thermophilus cells, prepared as described in Example 1. Freshly grown Strep. thermophilus at 1x10⁸ cells/mL are used without any treatment. • (b) Construct reaction mixtures for the detection of antibiotic activity in milk specimens from 0.4 mL cell suspension (fresh or rehydrated lyophilized), 1.6 mL milk specimen, 0.05 mL 10 % Difco Yeast Extract and 0.05 mL 10 % Difco Tryptose. Include at least one control milk specimen, known not to contain any antibiotic drug, whenever the Antibiotic assay is employed. • (c) Incube the complete antibiotic exposure mixtures of the control and unknown milk specimens for 25 minutes at 42°C. • (d) Upon completion of the incubation mix 0.4 mL aliquots of all reaction mixtures with 1.6 mL of 0.5 % glucose, 0.175 mg/mL MTT (3-[4,5-Dimethylthiazol-2-yl]-2.5 diphenyltetrazolium bromide) in water, and incubate for 5 minutes. The amount of color resulting from MTT reduction can be estimated by one of the methods detailed in Example 3.
Transfer a 0.75 mL aliquot of the reaction mixture to a 2 mL microcentrifuge test tube. Add 0.75 mL 1-Butanol. Agitate on a vortex mixer for 15 seconds. Centrifuge the suspension at 10,000 x g for 2.5 minutes. Transfer 0.6 mL the upper clear, colored phase to a clean microcentrifuge test tube, containing 0.6 mL 1-Butanol. Agitate on a vortex mixer for 15 seconds. Centrifuge the suspension at 10,000 x g for 2.5 minutes. Transfer 1 mL the upper clear, colored phase to a clean cuvette. Determine the color density at 570 nm.
Milk specimens containing 3.5 or 7 mIU/mL of Penicillin G were tested with lyophilized Strep. thermophilus organisms, as described in Example 2. Color development for each antibiotic concentration was carried out either with the MTT solution as described in section (d) of Example 2, which is hypotonic or with the same solution, made isotonic by the addition of sucrose to 0.3M final concentration.
The amount of MTT color produced was determined by measuring the optical density of butanol extract made from the reaction mixtures (example 3 (d)).
Milk specimens containing 1-14 mIU:mL Penicillin G, were tested as described in Example 2 for lyophilized bacteria.
Milk specimens, containing 7 mIU/mL of Penicillin G were tested as described in Example 2 for lyophilized Strep. thermophilus cultivated to high density by pH adjustments. Incubation times of the milk specimens with the indicator bacteria varied between 10 and 25 minutes. Incubation with the MTT solution varied between 5 and 10 minutes. The amount of MTT color produced was determined by measuring the optical density of butanol extract made from the reaction mixtures (example 3 (d)). […]

Assay [4] relates to Strep. thermophilus cells. Described as above. The assay is classed as cell-based, Streptococcus thermophilus (ATCC 14485). The settings on record: isotonic MTT solution (0.3M sucrose); Penicillin concentration 4; lyophilized cells.
Assay [5] deals with B. stearothermophilus ATCC 10149. Kind of assay: Detection of Penicillin G in milk with B. stearothermophilus cells (MTT reduction). The settings on record: 30 min at 55°C + 10 min MTT. Format: cell-based, Bacillus stearothermophilus. As for the experimental part: The whole reaction mixture is filtered through glass filter paper circles (e.g. Whatman GF/F, 2.5 cm diameter). The color can be estimated visually or measured by a reflecting densitometer, such as Gretag D182 (Gretag Ltd., CH-8105 Regensdorf, Switzerland). • (a) Inoculate B. stearothermophilus ATCC 10149 into a liquid medium constructed from 10 % Difco skim milk and 0.5 % Difco yeast extract in water. Incubate at 55°C with constant (shaking) for 18 hrs. • (b) Dilute the overnight culture 1:20 into fresh liquid medium and continue shaking at 55°C for 2 hrs. • (c) Dilute 1:10 into liquid medium fortified with 0.8M sucrose and continue shaking at 55°C for 2.5 hrs. […] Use immediately or keep on ice until ready to continue. • (d) Mix each Penicillin containing milk specimen with an equal volume of B. stearothermophilus suspension, as obtained in Step (c). Shake for 30 minutes at 55°C. • (e) Add MTT solution, as described in Example 2 (d) and continue shaking for 10 minutes at 55°C. • (f) Determine the amount of MTT dye as described in Example 3(b).

[6] abbreviates: added to antibiotic free milk, 25 min at 42°C + 5 min MTT.
Setting [7] is: Penicillin Concentration 1 mIU/mL, lyophilized cells.
Setting [8] is: Penicillin Concentration 2 mIU/mL, lyophilized cells.
The mark [9] stands for this setting: Penicillin Concentration 4 mIU/mL, lyophilized cells.
The mark [10] stands for this setting: Penicillin Concentration 7 mIU/mL, lyophilized cells.
Setting [11] is: Penicillin Concentration 14 mIU/mL, lyophilized cells.
[12] abbreviates: dried (lyophilized) cells, 7 mIU/mL Penicillin G in milk.
The mark [13] stands for this setting: hypotonic MTT solution, Penicillin concentration 4, lyophilized cells.
[14] abbreviates: hypotonic MTT solution, Penicillin concentration 7, lyophilized cells.
Setting [15] is: isotonic MTT solution (0.3M sucrose), Penicillin concentration 7, lyophilized cells.
The mark [16] stands for this setting: Penicillin G Concentration 16 mIU/mL in milk.
Where [17] appears, read: Penicillin G Concentration 32 mIU/mL in milk.

Values joined by “and” are separate entries in the source; they are usually repeats but may differ in a detail not shown here. Equal values may be shown once.

As for `Cc1onc(-c2ccccc2Cl)c1C(=O)N[C@@H]1C(=O)N2[C@@H]1SC(C)(C)[C@@H]2C(=O)O` [Cloxacillin], the “Sensitivity (lowest concentration causing visually detectable decrease in color)” value in assay [1] (setting [6]) is 0.002 µg/mL.
The same measure, in the same setting: then Polymyxin, with 10 µg/mL.
`Nc1ccc(S(=O)(=O)Nc2ncccn2)cc1` [Sulfadiazine]: the “Sensitivity (lowest concentration causing visually detectable decrease in color)” value in assay [1] (test conducted in presence of 10 ug.mL trimethoprim, added to the milk specimen) is reported as 20 ug/mL^b.
Regarding `CN(C)[C@@H]1C(O)=C(C(N)=O)C(=O)[C@@]2(O)C(O)=C3C(=O)c4c(O)cccc4[C@@](C)(O)[C@H]3C[C@@H]12` [Tetracycline], the “Sensitivity (lowest concentration causing visually detectable decrease in color)” value in assay [1] (setting [6]) was found to be 0.2 µg/mL.
Regarding `CC1(C)S[C@@H]2[C@H](NC(=O)[C@H](N)c3ccccc3)C(=O)N2[C@H]1C(=O)O` [Ampicillin], in assay [1] (setting [6]), the “Sensitivity (lowest concentration causing visually detectable decrease in color)” value was determined as 0.002 µg/mL.
For the molecule `CC1(C)S[C@@H]2[C@H](NC(=O)Cc3ccccc3)C(=O)N2[C@H]1C(=O)O` [Penicillin G], the “Sensitivity (lowest concentration causing visually detectable decrease in color)” value in assay [1] (setting [6]) was 3.5 mIU/mL. Also, the “% Inhibition with” value was 54% in assay [2] (hypertonic pre-incubation medium (0.8M sucrose)) and 10% in assay [2] (isotonic pre-incubation medium (without sucrose)). In addition, the “Inhibition (%)” value was 7% in assay [3] (7 mIU/mL Penicillin G, first incubation 10 min, MTT 5 min (total 15 min), lyophilized high-density cells); 40% and 42% in assay [3] (7 mIU/mL Penicillin G, first incubation 10 min, MTT 10 min (total 20 min), lyophilized high-density cells); 21% in assay [3] (7 mIU/mL Penicillin G, first incubation 15 min, MTT 5 min (total 20 min), lyophilized high-density cells); 42% in assay [3] (7 mIU/mL Penicillin G, first incubation 15 min, MTT 10 min (total 25 min), lyophilized high-density cells); 77% in assay [3] (7 mIU/mL Penicillin G, first incubation 20 min, MTT 5 min (total 25 min), lyophilized high-density cells); 53% in assay [3] (7 mIU/mL Penicillin G, first incubation 20 min, MTT 10 min (total 30 min), lyophilized high-density cells). Moreover, the “Inhibition (%)” value in assay [3] (7 mIU/mL Penicillin G, first incubation 25 min, MTT 5 min (total 30 min), lyophilized high-density cells) worked out at 62%; in assay [3] (7 mIU/mL Penicillin G, first incubation 25 min, MTT 10 min (total 35 min), lyophilized high-density cells) it was 57%; in assay [3] (setting [7]) it was 17%; in assay [3] (setting [8]), 32%; in assay [3] (setting [9]), 56%; in assay [3] (setting [10]), 74%. In assay [3] (setting [11]), this molecule gave an Inhibition (%) of 80%. For the same molecule, the “OD at 570 nm” value in assay [3] (setting [7]) worked out at 0.098; in assay [3] (setting [8]) it was 0.080; in assay [3] (setting [9]), 0.052; in assay [3] (setting [10]), 0.031; in assay [3] (setting [11]), 0.024; in assay [3] (setting [13]) it was 0.052. Further, the “OD at 570 nm” value came out at 0.031 in assay [3] (setting [14]); 0.113 in assay [3] (isotonic MTT solution (0.3M sucrose), Penicillin concentration 4, lyophilized cells); 0.077 in assay [3] (setting [15]); 0.250 in assay [5] (setting [16]); 0.155 in assay [5] (setting [17]). For the same molecule, the “% inhibition” value in assay [3] (setting [12]) is 60%; in assay [3] (fresh cells, 7 mIU/mL Penicillin G in milk), 55%; in assay [3] (setting [13]), 56%; in assay [3] (setting [14]), 74%; in assay [3] (setting [15]), 34%; in assay [4], 3%. The “% inhibition” value in assay [5] (setting [16]) stood at 34%; in assay [5] (setting [17]), 59%. Moreover, the “OD 570 nm in 7 mIU/mL Penicillin Specimen” value is 0.062 in assay [3] (setting [12]) and 0.088 in assay [3] (fresh cells, 7 mIU/mL Penicillin G in milk, 25 min at 42°C + 5 min MTT). Moreover, the “concentration detectable in milk” value in assay [3] (lyophilized cells, butanol extraction, OD 570 nm) was determined as 1 mIU/mL.
`O=C(N[C@H](CO)[C@H](O)c1ccc([N+](=O)[O-])cc1)C(Cl)Cl` [Chloramphenicol]: the “Sensitivity (lowest concentration causing visually detectable decrease in color)” value in assay [1] (setting [6]) amounted to 2.5 µg/mL.
For `CN(C)[C@@H]1C(O)=C(C(N)=O)C(=O)[C@@]2(O)C(O)=C3C(=O)c4c(O)cccc4[C@@](C)(O)[C@H]3[C@H](O)[C@@H]12` [Oxytetracycline], the “Sensitivity (lowest concentration causing visually detectable decrease in color)” value in assay [1] (setting [6]) was determined as 0.4 µg/mL.

The values above are taken from patent EP0418113A2, “Microbiological assay kit and method for detecting antibacterial compounds” (ORGENICS LIMITED, priority 1989, dated 1991).
